According to paper PMC11856108, “Capsaicin (But Not Other Vanillins) Enhances Estrogen Binding to Its Receptor: Implications for Power Sports and Cancers” (Life, 2025):
“Also recorded” adds a separate entry of the source. Read-outs that look alike come from different tables or passages of the source.

Experiments:
insulin receptor (IR) [1] = biological target: insulin receptor (IR) (Homo sapiens, UniProt P06213); assay: Binding to the insulin receptor by ultraviolet spectroscopy; conditions: UV spectroscopy
Sequence of insulin receptor (IR) (Homo sapiens, UniProt P06213) (P06213 28-1382, species assumed): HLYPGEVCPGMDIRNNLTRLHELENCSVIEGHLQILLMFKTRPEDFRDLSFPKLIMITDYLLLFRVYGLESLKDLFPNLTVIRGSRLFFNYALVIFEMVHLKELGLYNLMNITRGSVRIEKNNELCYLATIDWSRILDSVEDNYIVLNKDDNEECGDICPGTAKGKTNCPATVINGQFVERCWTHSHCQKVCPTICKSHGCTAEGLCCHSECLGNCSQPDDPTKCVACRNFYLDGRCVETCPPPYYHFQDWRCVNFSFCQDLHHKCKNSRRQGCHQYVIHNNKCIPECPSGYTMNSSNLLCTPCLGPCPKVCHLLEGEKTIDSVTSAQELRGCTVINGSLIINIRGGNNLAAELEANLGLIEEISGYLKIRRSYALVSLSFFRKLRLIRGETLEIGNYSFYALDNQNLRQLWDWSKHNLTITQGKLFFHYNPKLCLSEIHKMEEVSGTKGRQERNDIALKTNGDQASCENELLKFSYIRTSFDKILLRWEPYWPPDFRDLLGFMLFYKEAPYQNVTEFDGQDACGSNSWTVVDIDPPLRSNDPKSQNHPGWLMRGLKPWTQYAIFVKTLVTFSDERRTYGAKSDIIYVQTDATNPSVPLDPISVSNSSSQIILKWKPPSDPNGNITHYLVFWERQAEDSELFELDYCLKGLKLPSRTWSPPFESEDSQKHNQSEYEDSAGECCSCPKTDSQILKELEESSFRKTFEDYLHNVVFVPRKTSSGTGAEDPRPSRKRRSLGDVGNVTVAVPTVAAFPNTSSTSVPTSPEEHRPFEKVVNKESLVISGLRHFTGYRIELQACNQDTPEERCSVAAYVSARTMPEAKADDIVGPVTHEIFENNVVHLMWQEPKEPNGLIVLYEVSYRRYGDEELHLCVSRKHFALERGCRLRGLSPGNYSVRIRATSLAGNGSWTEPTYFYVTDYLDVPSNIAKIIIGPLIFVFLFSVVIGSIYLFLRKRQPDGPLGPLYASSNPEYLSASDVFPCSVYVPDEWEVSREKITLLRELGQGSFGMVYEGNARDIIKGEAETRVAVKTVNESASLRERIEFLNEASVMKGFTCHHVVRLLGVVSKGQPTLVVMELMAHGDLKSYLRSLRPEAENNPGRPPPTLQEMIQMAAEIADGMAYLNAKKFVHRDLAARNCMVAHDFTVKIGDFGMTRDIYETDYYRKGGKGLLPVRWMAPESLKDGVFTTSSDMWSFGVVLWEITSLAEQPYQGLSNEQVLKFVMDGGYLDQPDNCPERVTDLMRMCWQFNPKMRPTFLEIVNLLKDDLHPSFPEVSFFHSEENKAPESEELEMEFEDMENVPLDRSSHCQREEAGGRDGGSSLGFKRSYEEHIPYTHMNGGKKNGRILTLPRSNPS
Description: (§1) UV spectroscopy in a crystal plate was used to investigate whether CAP has specificity for estrogen alone or whether it can bind to other naturally occurring hormones. To start, CAP was dissolved in a 1:1 solution of water to ethanol at 1 mg/mL ( 3.27×10^−3 M ) and then diluted by thirds eight times. Next, the hormones were dissolved in a 1:1 solution of water to ethanol at a 1/100 dilution. An amount of 50 μL of each CAP dilution was added to 3 wells of a crystal plate, with one well serving as the control, with another 50 μL of 1:1 water to ethanol added, and the other two serving as experimental duplicates, with 50 μL of the prepared hormone solution added. Then, two additional wells were prepared to serve as controls: one containing 100 μL of 1:1 water to ethanol and the other containing 50 μL of prepared hormone solution and 50 μL of 1:1 water to ethanol. Finally, the plate was incubated for 1 h and read in a Spectramax UV-VIS scanning spectrophotometer, spanning wavelengths from 190 to 400 nm. Data analysis involved the subtraction of observed absorbance values from expected absorbance values generated from the control wells ([CAP + 1:1 solution] + [hormone + 1:1 solution] − [1:1 solution]) and plotting them as a function of CAP concentration. Because the solvent (1:1 solution of water–ethanol) was used as a control and subtracted from all wells, the resulting data reflected only the absorbances of the solute compounds. Since each compound has a different lambda maximal absorbance, analysis of the resulting data required finding one common wavelength at which the additions and subtractions of the spectra could be carried out and at which the absorbance of each compound was maximized.
(§2) [17, 19, 20, 21, 22, 23]. […] Because CAP binds to INS, it was possible that it might antagonize INS binding to its receptor. […] Two types of ultraviolet spectroscopy experiments were performed. In one, INS (1 µM) and the IR were kept constant and the concentration of CAP increased from 0.1 µM to 100 µM. In the other, the CAP (25 µM) and IR were kept constant and the concentration of INS increased from 10 nM to 10 µM. In neither experiment was any significant change in the INS binding curve observed.
CAP did bind to the ESR1 with what appears to be a high affinity (Kd = 0.9 µM) and a lower affinity (Kd = 10 µM) site. […] Other vanilloid compounds also bound to the ESR1 but with lower affinity than CAP (Figure 6). None bound to the IR.

[2] = Binding to steroid hormone by UV spectroscopy
Description: as §1
Experiments were also performed to test whether the enhancement or antagonism observed in estradiol binding to the ESR1 might be due to vanilloid compounds binding directly to estradiol or to related steroidal hormones, perhaps protecting them from oxidation or forming a complex that prevented the estradiol binding to its receptor. No vanilloid compound bound to a measurable degree to estradiol or any other steroidal hormone tested.

insulin receptor (IR) [3] = assay: Effect on INS binding to its receptor by ultraviolet spectroscopy; conditions: INS 1 µM with CAP 0.1-100 µM, or CAP 25 µM with INS 10 nM-10 µM
Description: as §2

T1DM rats = tested on: T1DM rats; set-up: method as in PMID 28230360; conditions: cited from earlier work
Mice [4] = tested on: Mice; set-up: method as in PMID 23536811; conditions: cited from earlier work
Human (male) [5] = tested on: Human (male); set-up: method as in PMID 8926537; conditions: cited from earlier work
Human (male) [6] = tested on: Human (male); set-up: method as in PMID 17615999; conditions: cited from earlier work
Human, Mice = tested on: Human, Mice; set-up: method as in PMID 29772784; conditions: Both ***; cited from earlier work
Mice [7] = tested on: Mice; set-up: method as in PMID 23958300; conditions: cited from earlier work
Human HepG2 cells = tested on: Human HepG2 cells; set-up: method as in PMID 25621172; conditions: cited from earlier work
Human = tested on: Human; set-up: method as in PMID 25621172; conditions: cited from earlier work
[8] = tested on: Human nasopharyngeal carcinoma; set-up: method as in PMID 28644386; conditions: cited from earlier work
Human (NSCLC cells) = tested on: Human (NSCLC cells); set-up: method as in PMID 24926985; conditions: cited from earlier work
Mice: TRPV1+ vs. TRPV1- = tested on: Mice: TRPV1+ vs. TRPV1-; set-up: method as in PMID 32400193; conditions: cited from earlier work
Rats (female) = tested on: Rats (female); set-up: method as in PMID 29294454; conditions: cited from earlier work
Mice [9] = tested on: Mice; set-up: method as in doi:10.32604/biocell.2023.028222; conditions: cited from earlier work
Mice [10] = tested on: Mice; set-up: method as in PMID 38700794; conditions: cited from earlier work
[11] = biological target: insulin (human recombinant) (Homo sapiens, UniProt P01308); assay: Binding to insulin by ultraviolet spectroscopy; conditions: UV spectroscopy
Sequence of insulin (human recombinant) (P01308 25-54 limits assumed): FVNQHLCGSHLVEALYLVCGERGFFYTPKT
Sequence of insulin (human recombinant) (P01308 90-110 limits assumed): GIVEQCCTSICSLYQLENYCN

COc1cc(CNC(=O)CCCC/C=C/C(C)C)ccc1O [Capsaicin, trans-8-methyl-N-vanillyl-6-nonenamide]
binding to the insulin receptor (in words) (insulin receptor (IR) [1]; listed as CAP): did not bind significantly to the IR except at concentrations well beyond those physiologically possible | binding to the insulin receptor (in words) (insulin receptor (IR) [1]; listed as capsaicin): not the insulin receptor | Binding (Kd) 4-Androstene-3,17-dione [2]: No binding | Binding (Kd) 5-Pregnan-3β-OL-2O-one [2]: No binding | Binding (Kd) Estradiol [2]: No binding | Binding (Kd) Estriol [2]: No binding | Binding (Kd) Progesterone [2]: No binding | Binding (Kd) Estradiol ([2]; listed as capsaicin): did not bind directly to estradiol | effect on INS binding to its receptor (insulin receptor (IR) [3]): no observable effect | effect on INS binding to its receptor (insulin receptor (IR) [3]; listed as CAP): does not, apparently, alter INS binding to its receptor; also recorded: did not significantly affect INS binding to its receptor | Capsaicin Upregulates (T1DM rats): >Serum INS (CAP 6 mg/kg) | Downregulates or Inhibits (T1DM rats): >Fasting blood glucose levels and serum level of glycosylated protein | Capsaicin Upregulates (Mice [4]): >Ca^2+ ion release into the cell via TRPV-1 activation >Muscle actin–myosin interaction >Force generation >Intramuscular triglyceride consumption | Capsaicin Upregulates (Human (male) [5]): >Fat metabolism through neuroadrenergic effects of TRPV-1 activation | Capsaicin Upregulates (Human (male) [6]): >Sympathetic modulation (adrenal catecholamine secretion) and thermogenesis | Capsaicin Upregulates (Human, Mice): >INS sensitivity—TRPV-1 activation stimulated GLP-1 release * >Fatty acid oxidation—modulated via TRPV1 activation >INS secretion from pancreatic β-cells *** | Downregulates or Inhibits (Human, Mice): > Inflammatory factors ** | Capsaicin Upregulates (Mice [7]): >Glucose uptake via AMPK activation and increasing p38 MAPK phosphorylation >Stimulation of ROS generation | Cancer-Related Effects (Human HepG2 cells): >Sensitizes human cancer cells to cytocidal effects of chemotherapeutic agents >Selectivity to kill cancer cells with minimal damage to normal cells | Downregulates or Inhibits (Human HepG2 cells): >MDR-1 pathway → downregulates MDR-1 transcription (improves sensitivity) | Cancer-Related Effects (Human): >Induces apoptosis | Downregulates or Inhibits (Human): >Bax/Bcl2 pathway → decreased expression of Bcl-2 (prosurvival gene) | Upregulates (Human): >Bax/Bcl2 pathways → increased expression of Bax (apoptotic gene) | Cancer-Related Effects [8]: >Regulation of autophagic pathways | Upregulates [8]: >Increases levels of LC3-II and Atg5 >Enhances p62 and Fap-1 degradation | Cancer-Related Effects (Human (NSCLC cells)): >Inhibition of tumor angiogenesis and metastasis | Downregulates or Inhibits (Human (NSCLC cells)): >VEGF expression | Upregulates (Human (NSCLC cells)): >Activates p53-SMAR1 positive feedback loop >Decreases endothelial cell migration and network reformation | Cancer-Related Effects (Mice: TRPV1+ vs. TRPV1-): >Chemoprevention | Downregulates or Inhibits (Mice: TRPV1+ vs. TRPV1-): >Blocked metastatic burden >Mechanism unknown | Cancer-Related Effects (Rats (female)): >Blocks formation of nitrosomethylurea-induced mammary tumors | Downregulates or Inhibits (Rats (female)): >Decreased antioxidant enzymes | Upregulates (Rats (female)): >Increases estradiol, progesterone, CEA and malondialdehyde levels | Cancer-Related Effects (Mice [9]): >Attenuates testosterone-induced prostate growth | Cancer-Related Effects (Mice [10]): >Ameliorated changes to the histological structure, prostate weight and prostate index (prostate/body weight ratio) | Downregulates or Inhibits (Mice [10]): >TGF-β1/Smad signaling pathway → expression of E-cadherin, TGFBR2, TGF-β1 and p-Smad2/3 >IGF-1/AKT signaling pathway → expression of IGF-1, IGF-1R, p-AKT and RAGE >Androgen signaling pathway → expression of 5-αreductase type II, AR and PSA | Upregulates (Mice [10]): >TGF-β1/Smad signaling pathway → expression of N-cadherin, vimentin, fibronectin >TRPV-1-mediated apoptosis | Kd ([11]; Binding (Kd) Insulin, Table 1): 4 µM | binding to insulin (in words) [11]: bound to insulin | Kd ([11]; binding constant to INS): ~4 µM
